“And” between values parts separate entries of the source, which are not always exact repeats. Identical values can stand only once. “Also recorded” adds a separate entry of the source. Like-named read-outs stand apart in the source and are kept apart here.
Assays:
[1] = test system: rat hypothalamic and corticotropin-releasing hormone secretion; details: cited from earlier work
[2] = test system: [^3 H]DA release from rat striatal slices; assay: [3H]DA release assay: compound-evoked (intrinsic agonist) release; type: cell-based
Method: (§1) Biological Methods. Male Spragua-Dawley rats (150-200 g) were obtained from Harlan Laboratories (Indianapolis, Ind.) and were housed two per cage with free access to food and water in the Division of Lab Animal Resources at the College of Pharmacy at the University of Kentucky. Experimental protocols involving the animals were approved by the Institutional Animal Care and Use Committee at the University of Kentucky.
(§2) [^3 H]DA Release Assay. Rat striatal slices (500 μm thickness, 6-8 mg wet weight) were obtained as previously described (Dwoskin and Zahniser, 1986). Slices were incubated for 30 min in Krebs' buffer ([…]; 118 NaCl, 4.7 KCl, 1.2 MgCl2, 1.0 NaH2 PO4, 1.3 CaCl2, […], 11.1 glucose, 25 NaHCO3, 0.11 L-ascorbic acid nd 0.004 disodium EDTA; pH 7.4 and saturated with 95% O2 /5% CO2) in a metabolic shaker at 34°. Slices were rinsed with 15 ml of fresh buffer and incubated for an additional 30 min in fresh buffer containing 0.1 μM [^3 H]dopamine (6 slices/3 ml). Subsequently, slices were rinsed with 15 ml of fresh buffer and transferred to a glass superfusion chamber. Slices were superfused (1.0 ml/min) for 60 min with Krebs' buffer containing nomifensine (10 μm) and pargyline (10 μm) and maintained at 34° C., pH 7.4 with continual aeration (95% O2 /5% CO2). Two 5-min samples (5 ml) were collected to determine basal outflow of [^3 H]DA. N-Substituted nicotine analogues were added to the superfusion buffer after the collection of the second sample and remained in the buffer until 12 consecutive 5-min samples were collected. […] At the end of the experiment each slice was solubilized and the [^3 H] content of the tissue determined.
(§3) Radioactivity in the superfusate and tissue samples was determined by liquid scintillation spectroscopy. Fractional release for each superfusate sample was calculated by dividing the total tritium collected in each sample by the total tritium present in the tissue at the time of sample collection. Basal [^3 H]out flow was calculated from the average of the tritium collected in the two 5-min samples just before addition of the N-substituted nicotine analogue. The sums of the increase in collected tritium resulting from either exposure to the test compound or exposure to nicotine in the absence and presence of the test compound equaled total [^3 H]overflow. [^3 H]overflow was calculated by subtracting the [^3 H]outflow during an equivalent period of prestimulation from the values in samples collected during and after drug exposure. Inasmuch as the radiolabelled compounds were not separated and identified, the tritium collected in superfusate is referred to as either [^3 H]outflow or [^3 H]overflow, rather than as [^3 H]DA. [^3 H]Overflow primarily represents [^3 H]DA in the presence of nomifensine and pargyline in the superfusion buffer (Zumstein et al. 1981).

[3] = test system: rat striatal synaptosomes; details: cited from earlier work
[4] = test system: S(-)nicotine (10 μM)-evoked [^3 H]DA release from rat striatal slices; type: cell-based
Method: as §1, §2, §3
In these experiments, the striatal slices were superfused for 60 min with various concentrations of the analogues prior to nicotine (10 μM) exposure. Antagonist activity was evaluated by comparing the nicotine-evoked [^3 H]overflow in the absence and presence of the analogues. […] The relative order of potency of the classical and pyridine-N substituted nicotine analogues for inhibition of nicotine-evoked [^3 H]DA release from rat striatal slices is illustrated in FIG. 2 by a comparison of their IC50 values.
FIG. 2. IC50 values for N-substituted analogues of nicotine, nornicotine, and cotinine to inhibit nicotine-evoked [^3 H]DA release from rat striatal slices. Inhibition produced by the classical nicotinic inhibitors, mecamylamine (MEC) and DHBE was also determined. Slices were superfused with inhibitor for 60 min […] co-superfusion with 10 μM nicotine. Inhibition was determined by comparing [^3 H]DA release in the absence and presence of various concentrations of inhibitor. IC50 values were determined using the Logit-log plot (pseudo-Hill plot). […] IC50 for each animal was determined as the intercept of the linear regression.

physchem = details: for pKa: d2o, 1H-NMR
Method: (§4) pKa Determination. A solution [1 g in 12 mls of deuterium oxide 100% atom D] of the compound under investigation was gradually acidified by drop-wise addition of a solution of DC1 to D2 O (20% wt/wt, 99.5% atom D). The pD values were measured on a Corning pH meter. For each pD value, a sample (0.8 mls) was analyzed by ^1 H-NMR on a Varian Unity 300 MHz spectrometer using sodium 3(trimethylsilyl)-2,2,3,3-d4 -propionate (TSP) as internal reference. Protonation of the pyrrolidine- and pyridine-N atoms was followed by observing the variation in chemical shift of the N-1'-methyl and 2'-proton signals from pO 8.8 to pD 3.0. A titration curve of pD vs chemical shift was constructed to determine the pKa values of pyrrolidino-N atom and/or the pyridine-N atom.
as §4, with “Computational Chemistry.” for “pKa Determination.”, “3-(trimethylsilyl)-2,2,3,3-d4” for “3(trimethylsilyl)-2,2,3,3-d4”, “N-1'methyl” for “N-1'-methyl”, “pD” for “pO”

rabbit caudate nucleus = details: cited from earlier work
[5] = test system: dopamine 2 agonist binding in rat basil ganglia; details: in vivo; cited from earlier work
nicotine receptor = details: cited from earlier work
[6] = animal and human experiments; cited from earlier work
[7] = Ames type assays and chronic exposure studies; cited from earlier work
skin = details: cited from earlier work
[8] = pKa of pyrrolidino-N (N'-amino) functionality
[9] = Table 3, 1 μM, mean ± S.E.M., rat striatal slices
[10] = Table 3, 10 μM, mean ± S.E.M., rat striatal slices
[11] = Table 3, 100 μM, mean ± S.E.M., rat striatal slices

C[N+](C)(C)CCCCCC[N+](C)(C)C [hexamethonium]
effect on IR-rCRH secretion (in words) [1]: This effect was antagonized by the simultaneous presence of atropine and hexamethonium

CN1[C@@H]2CC[C@H]1C[C@@H](OC(=O)C(CO)c1ccccc1)C2 (some centres unmarked) [atropine]
effect on IR-rCRH secretion (in words) [1]: This effect was antagonized by the simultaneous presence of atropine and hexamethonium

O=c1cccc2n1C[C@@H]1CNC[C@H]2C1 [S(-)cytisine, reference compound]
effect on [3H]DA release / intrinsic agonist activity (in words) [2]: only marginally released dopamine from the striatal slice
total [3H]overflow (effect on [3H]DA release) [2]: 0.67 ± 0.26 and 0.85 ± 0.38 and 1.13 ± 0.46
Emax ([2]; Rattus norvegicus, read-out: evoked [3H]DA release relative to nicotine): ~20%
effect on [3H]dopamine release from rat striatal synaptosomes [3]: lesser effect of cytisine compared to nicotine in evoking dopamine release from rat striatal synaptosomes

CN1CCC[C@H]1c1cccnc1 [S(-)nicotine, reference compound]
effect on [3H]DA release / intrinsic agonist activity (in words) [2]: concentration-dependent increase in [^3 H]DA release and was the most potent and efficacious compound; also recorded: concentration-dependent increase in [^3 H]DA release from rat striatal slices
total [3H]overflow (effect on [3H]DA release) [2]: 2.80 ± 0.28 and 3.24 ± 0.37 and 5.56 ± 0.50
EC50 ([2]; Rattus norvegicus, read-out: EC50 for nicotine-evoked [3H]DA release): 2 µM
nicotine (10 μM)-evoked total [3H]overflow, grand mean [4]: 2.52 ± 0.12
nicotine (10 μM)-evoked total [3H]overflow, range [4]: 1.03-4.65
pKa (physchem; pKa of pyridine-N functionality): 3.75
pKa (physchem; [8]): 8.4
effect on basal outflow of GABA (rabbit caudate nucleus): accelerated the basil outflow of gamma-aminobutyric acid (GABA)
effect on IR-rCRH secretion (in words) [1]: stimulated IR-rCRH secretion in a dose-dependent fashion
effect on [3H]dopamine release from rat striatal synaptosomes [3]: stimulates the release of [3H]dopamine from rat striatal synaptosomes
effect of chronic treatment on dopamine 2 agonist binding [5]: decreases dopamine 2 agonist binding in rat basil ganglia

C[N+](C)(C)CCOC(N)=O [carbachol]
effect on IR-rCRH secretion (in words) ([1]; in vitro, p less than 0.05 for antagonists of acetylcholine): stimulated IR-rCRH secretion in a dose-dependent fashion

CN1[C@@H](CC(=O)c2ccccc2)CCC[C@H]1C[C@H](O)c1ccccc1 [alpha-lobeline]
agonist/antagonist character (nicotine receptor): mixed agonist-antagonist

C=CC[n+]1cccc([C@@H]2CCCN2C)c1 [NANI, S-N-allylnicotiniumiodide]
total [3H]overflow (effect on [3H]DA release) [2, 9]: 0.02 ± 0.02
total [3H]overflow (effect on [3H]DA release) [2, 10]: 0.07 ± 0.04
total [3H]overflow (effect on [3H]DA release) [2, 11]: 0.08 ± 0.03
nicotinic antagonist activity / inhibition of nicotine-evoked [3H]DA release (in words) [4]: Significant antagonist activity; also recorded: significantly lower potency and efficacy; also recorded: possessing antagonist activity; also recorded: preferred nicotinic receptor antagonist activity
relative order of potency for inhibition of nicotine-evoked [3H]DA release (comparison of IC50 values) [4]: NBNB=NPNI=NnNBI=NANI>NHENI
pKa (physchem; [8]): 6.4
predominant ionization form (physchem; physiological pH): exist predominantly in their unprotonated form at physiological pH

CN1C(=O)CC[C@H]1c1ccc[n+](C)c1 [NMCI, S-N-methylcotininium iodide]
total [3H]overflow (effect on [3H]DA release) [2, 9]: 0.00 ± 0.00
total [3H]overflow (effect on [3H]DA release) [2, 10]: 0.01 ± 0.01
total [3H]overflow (effect on [3H]DA release) [2, 11]: 0.02 ± 0.01
nicotinic antagonist activity / inhibition of nicotine-evoked [3H]DA release (in words) [4]: did not exhibit significant nicotinic antagonist activity over the concentration range tested; also recorded: devoid of antagonist activity
relative order of potency for inhibition of nicotine-evoked [3H]DA release (comparison of IC50 values) [4]: NMNI=S-N-methylcotininium iodide (NMCI)=S-N'-methyl nicotinium iodide (PIPNMN)
total [3H]overflow during cosuperfusion with 10 μM nicotine [4]: 3.11 ± 1.32 and 3.11 ± 1.20 and 3.75 ± 1.66

CCCCCCCC[n+]1cccc([C@@H]2CCCN2C)c1 [NONI, S-N-octylnicotinium iodide]
agonist activity relative to nicotine [2]: three-times the agonist activity of nicotine
total [3H]overflow (effect on [3H]DA release) [2, 9]: 0.03 ± 0.02
total [3H]overflow (effect on [3H]DA release) [2, 10]: 0.14 ± 0.14
total [3H]overflow (effect on [3H]DA release) [2, 11]: 16.4 ± 2.00
effect on [3H]DA release / intrinsic agonist activity (in words) ([2]; rat striatal slices, 1-100 μM): possessed intrinsic agonist activity at this high concentration; also recorded: did not possess agonist activity at concentrations which completely blocked nicotine-evoked [^3 H]DA release
effect on [3H]DA release / intrinsic agonist activity (in words) ([2]; rat striatal slices, 1-100 μM, listed as HONI): evoked [^3 H]DA release and thus, possess intrinsic agonist activity at this concentration
nicotinic antagonist activity / inhibition of nicotine-evoked [3H]DA release (in words) [4]: Significant antagonist activity; also recorded: completely inhibited nicotine-evoked [^3 H]DA release; also recorded: Greatest antagonist potency; also recorded: preferred nicotinic receptor antagonist activity; also recorded: most efficacious and potent compound in the series; also recorded: completely blocked the effect of nicotine to evoke [^3 H]DA release
potency relative to mecamylamine and dihydro-β-erythroidine [4]: approximately half that of the classical nicotinic antagonists
relative order of potency for inhibition of nicotine-evoked [3H]DA release (comparison of IC50 values) [4]: NONI>>DHBE=MEC
concentration for intrinsic agonist activity relative to that required to completely inhibit nicotine-evoked [3H]DA release ([4]; fold higher): 10 fold

CN1CCCC1=O [N-methyl-2-pyrrolidone]
irritation or sensitization potential [6]: very little irritation or sensitization potential
toxicity [7]: have not revealed any significant toxicity
skin penetration enhancement (skin): effective penetration enhancer

CN1CCC[C@H]1c1ccc[n+](C)c1 [NMNI]
total [3H]overflow (effect on [3H]DA release) [2, 9]: 0.13 ± 0.11
total [3H]overflow (effect on [3H]DA release) [2, 10]: 0.17 ± 0.10
total [3H]overflow (effect on [3H]DA release) [2, 11]: 0.08 ± 0.06
nicotinic antagonist activity / inhibition of nicotine-evoked [3H]DA release (in words) [4]: did not exhibit significant nicotinic antagonist activity over the concentration range tested; also recorded: no antagonistic activity; also recorded: devoid of antagonist activity
relative order of potency for inhibition of nicotine-evoked [3H]DA release (comparison of IC50 values) [4]: NMNI=S-N-methylcotininium iodide (NMCI)=S-N'-methyl nicotinium iodide (PIPNMN)

— US5691365A, “Nicotinic receptor antagonists in the treatment of neuropharmacological disorders” (University of Kentucky Research Foundation, priority 1995, dated 1997)
